± gives the expanded uncertainty stated by the source.
Experiment: mn = molality of the nth substance listed, in mol/kg
Conditions: 101 kPa, Liquid, METLER TOLEDO SevenEasy conductivity meter

O=[N+]([O-])[O-].O=[N+]([O-])[O-].O=[N+]([O-])[O-].[Ce+3] [cerium nitrate] + O
electrical conductivity [S/m]
Conditions	m1 = 0.5112	m1 = 1.031	m1 = 1.555	m1 = 1.997	m1 = 3.131	m1 = 3.968	m1 = 4.462
293.15 K	6.618 ± 0.066	8.513 ± 0.085	8.217 ± 0.082	7.244 ± 0.072	4.309 ± 0.043	2.67 ± 0.027	1.912 ± 0.019
298.15 K	7.4 ± 0.074	9.446 ± 0.094	9.15 ± 0.092	8.103 ± 0.081	4.9 ± 0.049	3.1 ± 0.031	2.244 ± 0.022
308.15 K	8.78 ± 0.088	11.24 ± 0.11	10.9 ± 0.11	9.78 ± 0.098	6.136 ± 0.061	4.018 ± 0.04	2.96 ± 0.03

O=[N+]([O-])[O-].O=[N+]([O-])[O-].O=[N+]([O-])[O-].[Nd+3] [neodymium(III) nitrate] + O
electrical conductivity [S/m]
Conditions	m1 = 0.522	m1 = 1.021	m1 = 1.555	m1 = 2.093	m1 = 3.086	m1 = 4.124	m1 = 4.297
293.15 K	6.78 ± 0.068	8.78 ± 0.088	8.65 ± 0.087	7.44 ± 0.074	4.708 ± 0.047	2.521 ± 0.025	2.219 ± 0.022
298.15 K	7.48 ± 0.075	9.66 ± 0.097	9.545 ± 0.095	8.27 ± 0.083	5.329 ± 0.053	2.931 ± 0.029	2.623 ± 0.026
308.15 K	8.97 ± 0.09	11.5 ± 0.12	11.44 ± 0.11	10.01 ± 0.1	6.65 ± 0.067	3.821 ± 0.038	3.422 ± 0.034

O=[N+]([O-])[O-].O=[N+]([O-])[O-].O=[N+]([O-])[O-].[Y+3] [yttrium nitrate] + O
electrical conductivity [S/m]
Conditions	m1 = 0.4989	m1 = 0.9965	m1 = 1.497	m1 = 1.982	m1 = 2.947	m1 = 3.945	m1 = 4.957
293.15 K	7.202 ± 0.072	10.03 ± 0.1	10.36 ± 0.1	9.433 ± 0.094	6.35 ± 0.064	3.68 ± 0.037	1.89 ± 0.019
298.15 K	8.339 ± 0.083	11.6 ± 0.12	12 ± 0.12	10.9 ± 0.11	7.421 ± 0.074	4.4 ± 0.044	2.28 ± 0.023
308.15 K	9.922 ± 0.099	13.7 ± 0.14	14.17 ± 0.14	13.03 ± 0.13	9.08 ± 0.091	5.611 ± 0.056	3.08 ± 0.031

— the NIST ThermoML archive (doi:10.1021/je200415u)
